Assay results as given in PubChem BioAssay AID194 (DTP/NCI, 2004).
“And” between values parts separate entries of the source, which are not always exact repeats. Identical values can stand only once. Records with an inconclusive call do not appear.

Tested on: BDF1 mice, B16 melanoma s.c., survival/tumor T/C
Assay: NCI In Vivo Anticancer Drug Screen. Data for tumor model B16 Melanoma (subcutaneous) in B6D2F1 (BDF1) mice
Settings: endpoint: median survival time, higher = longer survival
Method: The antitumor activity of compounds was measured in mice bearing transplantable tumors. Survival or tumor size were measured and the results are expressed as the measurement made in the treated group (T) divided by the measurement made in the vehicle treated control group (C). The tumor model used in this assay is B16 Melanoma (subcutaneous) in B6D2F1 (BDF1) mice

[1] = dose: 1.0 mg/kg/injection, schedule: Q01DX009 (ip), vehicle: saline

Compound: OCCN1CCN(CC/C=C2/c3ccccc3Sc3ccc(C(F)(F)F)cc32)CC1
- T/C (dose: 1.8 micrograms/kg/injection, schedule: Q01DX009 (ip), vehicle: saline): 93 % of control
- T/C (dose: 3.7 micrograms/kg/injection, schedule: Q01DX009 (ip), vehicle: saline): 95 % of control
- T/C (dose: 7.5 micrograms/kg/injection, schedule: Q01DX009 (ip), vehicle: saline): 109 % of control
- T/C (dose: 15.0 micrograms/kg/injection, schedule: Q01DX009 (ip), vehicle: saline): 103 % of control
- T/C (dose: 30.0 micrograms/kg/injection, schedule: Q01DX009 (ip), vehicle: saline): 91 % of control

Compound: N[C@H](C(=O)O)[C@H]1ON=C(Cl)[C@@H]1O
- T/C (dose: 8.0 mg/kg/injection, schedule: Q01DX009 (ip), vehicle: saline): 113 % of control
- T/C (dose: 16.0 mg/kg/injection, schedule: Q01DX009 (ip), vehicle: saline): 114 % of control
- T/C (dose: 32.0 mg/kg/injection, schedule: Q01DX009 (ip), vehicle: saline): 108 % of control
- T/C (dose: 128.0 mg/kg/injection, schedule: Q01DX009 (ip), vehicle: saline): 114 % of control
- T/C (dose: 256.0 mg/kg/injection, schedule: Q01DX009 (ip), vehicle: saline): 114 % of control
- T/C (dose: 500.0 mg/kg/injection, schedule: Q01DX009 (ip), vehicle: saline with Tween-80): 117 % of control

Compound: O=c1n(CC2CO2)c(=O)n(CC2CO2)c(=O)n1CC1CO1 (stereo not given)
- T/C (dose: 20.0 mg/kg/injection, schedule: Q01DX011 (ip), vehicle: saline): 109 % of control
- T/C (dose: 40.0 mg/kg/injection, schedule: Q01DX011 (ip), vehicle: saline): 155 % of control

Compound: CN(N=O)C(=O)N[C@@H](C=O)[C@@H](O)[C@H](O)[C@H](O)CO
- T/C (dose: 20.0 mg/kg/injection, schedule: Q01DX009 (ip), vehicle: other): 113 % of control
- T/C (dose: 40.0 mg/kg/injection, schedule: Q01DX009 (ip), vehicle: other): 123 % of control
- T/C (dose: 80.0 mg/kg/injection, schedule: Q01DX009 (ip), vehicle: other): 106 % of control

Compound: CC1(C)N=C(N)N=C(N)N1c1ccc(CNC(=O)Nc2cccc(S(=O)(=O)F)c2)cc1
- T/C (dose: 100.0 mg/kg/injection, schedule: Q04DX003 (ip), vehicle: saline): 100 % of control
- T/C (dose: 225.0 mg/kg/injection, schedule: Q04DX003 (ip), vehicle: saline): 122 % of control

Compound: COc1cccc2c1C(=O)c1c(O)c3c(c(O)c1C2=O)CC(O)(C(C)=O)CC3OC1CC(N)C(O)C(C)O1 (stereo not given)
- T/C (dose: 5.8 mg/kg/injection, schedule: Q01DX009 (ip), vehicle: saline): 107 % of control
- T/C (dose: 11.7 mg/kg/injection, schedule: Q01DX009 (ip), vehicle: saline): 103 % of control
- T/C (dose: 23.4 mg/kg/injection, schedule: Q01DX009 (ip), vehicle: saline): 120 % of control

Compound: CCCCC[C@H](O)/C=C/[C@@H]1[C@@H](C/C=C\CCCC(=O)O)[C@@H](O)C[C@H]1O
- T/C (dose: 2.5 mg/kg/injection, schedule: Q04DX002 (ip), vehicle: saline with Tween-80): 89 % of control
- T/C (dose: 5.0 mg/kg/injection, schedule: Q04DX002 (ip), vehicle: saline with Tween-80): 110 % of control
- T/C (dose: 10.0 mg/kg/injection, schedule: Q04DX002 (ip), vehicle: saline with Tween-80): 106 % of control
- T/C (dose: 20.0 mg/kg/injection, schedule: Q04DX002 (ip), vehicle: saline with Tween-80): 93 % of control
- T/C (dose: 40.0 mg/kg/injection, schedule: Q04DX002 (ip), vehicle: saline with Tween-80): 114 % of control
- T/C (dose: 80.0 mg/kg/injection, schedule: Q04DX002 (ip), vehicle: saline with Tween-80): 86 % of control
- T/C (dose: 160.0 mg/kg/injection, schedule: Q04DX002 (ip), vehicle: saline with Tween-80): 90 % of control

Compound: CC(c1ccccc1)N1C(=O)CSC1=S (stereo not given)
- T/C (dose: 400.0 mg/kg/injection, schedule: Q01DX009 (ip), vehicle: Klucel (hydroxypropylcellulose) (HPC)): 89 % of control

Compound: COC(=O)C[C@](O)(CCC(C)(C)O)C(=O)O[C@@H]1C(OC)=C[C@]23CCCN2CCc2cc4c(cc2[C@H]13)OCO4
- T/C (dose: 0.7 mg/kg/injection, schedule: Q01DX009 (ip), vehicle: saline): 101 % of control
- T/C [1]: 87 % of control
- T/C (dose: 1.5 mg/kg/injection, schedule: Q01DX009 (ip), vehicle: saline): 91 % of control
- T/C (dose: 2.3 mg/kg/injection, schedule: Q01DX009 (ip), vehicle: saline): 105 % of control

Compound: CSCCC(N)C(=O)O (stereo not given)
- T/C (dose: 40.0 mg/kg/injection, schedule: Q01DX009 (ip), vehicle: Klucel (hydroxypropylcellulose) (HPC)): 108 % of control
- T/C (dose: 80.0 mg/kg/injection, schedule: Q01DX009 (ip), vehicle: Klucel (hydroxypropylcellulose) (HPC)): 97 % of control
- T/C (dose: 160.0 mg/kg/injection, schedule: Q01DX009 (ip), vehicle: Klucel (hydroxypropylcellulose) (HPC)): 97 % of control
- T/C (dose: 320.0 mg/kg/injection, schedule: Q01DX009 (ip), vehicle: Klucel (hydroxypropylcellulose) (HPC)): 122 % of control

Compound: CCC1(O)CC2CN(CCc3c([nH]c4ccccc34)C(C(=O)OC)(c3cc4c(cc3OC)N(C)C3C(O)(C(N)=O)C(O)C5(CC)C=CCN6CCC43C65)C2)C1 (stereo not given) (tested in a mixture with another compound)
- T/C (dose: 1.8 mg/kg/injection, schedule: Q04DX003 (ip), vehicle: water): 87 % of control

Compound: Nc1ncnc2c1ncn2C1OC(CO)C(O)C1O (stereo not given)
- T/C (dose: 60.0 mg/kg/injection, schedule: Q03HX024 (ip), vehicle: saline with Tween-80): 115 % of control
- T/C (dose: 70.0 mg/kg/injection, schedule: Q03HX024 (ip), vehicle: saline with Tween-80): 96 % of control
- T/C (dose: 80.0 mg/kg/injection, schedule: Q03HX024 (ip), vehicle: saline with Tween-80): 105 % of control
- T/C (dose: 160.0 mg/kg/injection, schedule: Q03HX024 (ip), vehicle: saline with Tween-80): 115 % of control
- T/C (dose: 240.0 mg/kg/injection, schedule: Q03HX024 (ip), vehicle: saline with Tween-80): 121 % of control

Compound: CC(C)(C)c1ccc(CN2CCN(C(c3ccccc3)c3ccc(Cl)cc3)CC2)cc1 (stereo not given)
- T/C (dose: 22.5 micrograms/kg/injection, schedule: Q01DX009 (ip), vehicle: Klucel (hydroxypropylcellulose) (HPC)): 91 % of control
- T/C (dose: 45.0 micrograms/kg/injection, schedule: Q01DX009 (ip), vehicle: Klucel (hydroxypropylcellulose) (HPC)): 88 % of control

Compound: N=c1ccn2c(n1)OC1C(O)C(CO)OC12 (stereo not given)
- T/C (dose: 37.5 mg/kg/injection, schedule: Q01DX009 (ip), vehicle: saline): 95 % of control
- T/C (dose: 75.0 mg/kg/injection, schedule: Q01DX009 (ip), vehicle: saline): 100 % of control
- T/C (dose: 150.0 mg/kg/injection, schedule: Q01DX009 (ip), vehicle: saline): 101 % of control

Compound: CC[CH2][Sn]([CH2]CC)([CH2]CC)[O][Sn]([CH2]CC)([CH2]CC)[CH2]CC
- T/C (dose: 0.5 mg/kg/injection, schedule: Q01DX009 (ip), vehicle: saline): 123 % of control
- T/C [1]: 114 % of control
- T/C (dose: 2.0 mg/kg/injection, schedule: Q01DX009 (ip), vehicle: saline): 100 % of control

Compound: COC1C(O)C(C)OC(OC2C(Oc3cccc4c(O)c5c(=O)oc6ccc(C)c7c(=O)oc(c34)c5c67)OC(C)C(O)C2O)C1O (stereo not given)
- T/C (dose: 6.25 mg/kg/injection, schedule: Q01DX009 (ip), vehicle: other): 95 % of control
- T/C (dose: 12.5 mg/kg/injection, schedule: Q01DX009 (ip), vehicle: other): 104 % of control
- T/C (dose: 25.0 mg/kg/injection, schedule: Q01DX009 (ip), vehicle: other): 100 % of control
- T/C (dose: 50.0 mg/kg/injection, schedule: Q01DX009 (ip), vehicle: other): 101 % of control

Compound: O=NN(CCCl)C(=O)NC1CCC(=O)NC1=O (stereo not given)
- T/C (dose: 1.0 mg/kg/injection, schedule: Q01DX009 (ip), vehicle: Klucel (hydroxypropylcellulose) (HPC)): 115 % of control
- T/C (dose: 1.56 mg/kg/injection, schedule: Q01DX007 (ip), vehicle: Klucel (hydroxypropylcellulose) (HPC)): 97 % of control
- T/C (dose: 4.0 mg/kg/injection, schedule: Q01DX009 (ip), vehicle: Klucel (hydroxypropylcellulose) (HPC)): 168 % of control and 228 % of control
- T/C (dose: 4.32 mg/kg/injection, schedule: Q01DX007 (ip), vehicle: Klucel (hydroxypropylcellulose) (HPC)): 98 % of control
- T/C (dose: 7.2 mg/kg/injection, schedule: Q01DX007 (ip), vehicle: Klucel (hydroxypropylcellulose) (HPC)): 121 % of control
- T/C (dose: 17.0 mg/kg/injection, schedule: Q01DX001 (ip), vehicle: gum acacia): 177 % of control
- T/C (dose: 23.0 mg/kg/injection, schedule: Q01DX001 (ip), vehicle: gum acacia): 89 % of control

Compound: O=P(O)(NCCCl)NCCCl
- T/C (dose: 50.0 mg/kg/injection, schedule: Q01DX001 (ip), vehicle: saline): 98 % of control
- T/C (dose: 150.0 mg/kg/injection, schedule: Q01DX001 (ip), vehicle: saline): 162 % of control

Compound: CCOC(=O)C1CCC(NC(=O)N(CCCl)N=O)CC1 (stereo not given)
- T/C (dose: 33.0 mg/kg/injection, schedule: Q01DX001 (ip), vehicle: gum acacia): 196 % of control
- T/C (dose: 44.0 mg/kg/injection, schedule: Q01DX001 (ip), vehicle: gum acacia): 192 % of control

Compound: Cc1nc(N)nc(N)c1-c1ccc(Cl)c(Cl)c1
- T/C (dose: 1.0 mg/kg/injection, schedule: Q02DX009 (ip), vehicle: Klucel (hydroxypropylcellulose) (HPC)): 103 % of control
- T/C (dose: 2.0 mg/kg/injection, schedule: Q02DX009 (ip), vehicle: Klucel (hydroxypropylcellulose) (HPC)): 99 % of control
- T/C (dose: 4.0 mg/kg/injection, schedule: Q02DX009 (ip), vehicle: Klucel (hydroxypropylcellulose) (HPC)): 88 % of control
- T/C (dose: 8.0 mg/kg/injection, schedule: Q02DX009 (ip), vehicle: Klucel (hydroxypropylcellulose) (HPC)): 112 % of control
